Results taken from PubChem BioAssay AID712 (Emory University Molecular Libraries Screening Center, 2007).
The source made the active and inactive calls. No rule for the calls is given here.

Molecular target: Heat shock protein HSP 90-alpha (Homo sapiens) (UniProt P07900)
Assay: Hsp90 blockade concentration-response – dose response (AID 712)
Settings: Hsp90 inhibition assay

Row | SMILES | IC50
1 | Oc1ccc(-c2onc(C(F)(F)F)c2-c2cscn2)c(O)c1 | 18 µM
2 | CC(CCN(C)C)Nc1cc(O)cc2cccnc12 (stereo not drawn) | 1.56 µM
3 | Cc1coc2c(O)cc3c(c12)OC1(N2CCCCC2)C(=O)NCCCC31 (stereo not drawn) | 6.62 µM
4 | O=C(NCc1cccnc1)C1c2ccccc2C(=O)N1Cc1ccco1 (stereo not drawn) | > 50 µM (inactive)
5 | CC(=O)Nc1cc(OC(C)=O)c2nonc2c1OC(C)=O | 5.7 µM
6 | CN(C)[C@@H]1C(=O)C(C(N)=O)=C(O)[C@@]2(O)C(=O)C3=C(O)c4c(O)cccc4[C@@](C)(O)[C@H]3C[C@@H]12 | 22.4 µM
7 | Cc1ccc(OC(=O)c2ccc(N)cc2O)cc1 | > 50 µM (inactive)
8 | OCCCc1nc2n(n1)C(c1ccccc1)C=C(c1ccccc1)N2 (stereo not drawn) | > 50 µM (inactive)
9 | Nc1cccc(S(=O)(=O)Nc2ccc(N)c(-c3ccccc3O)c2)c1 | > 50 µM (inactive)
10 | Cn1c(=O)c2c(nc(Oc3ccc4c(c3)OCO4)n2Cc2ccc(Cl)cc2)n(C)c1=O | > 50 µM (inactive)
11 | O=C(CSc1n[nH]c(-c2ccccc2)n1)c1ccc(O)c(O)c1 | 7.72 µM
12 | O=C1C(c2nc3ccccc3s2)=C(O)c2ccccc21 | > 50 µM (inactive)
13 | CCOc1ccc2ccccc2c1-c1cc(NS(=O)(=O)c2cc(Cl)ccc2Cl)ccc1NC(=O)OC(C)(C)C | > 50 µM (inactive)
14 | c1ccc2sc(SCc3ccc(-c4nnco4)cc3)nc2c1 | > 50 µM (inactive)
15 | Cc1occc1C(=O)NC(C)C(C)(C)C (stereo not drawn) | > 50 µM (inactive)
16 | Oc1ccc2[nH]ccc2c1 | > 50 µM (inactive)
17 | N#Cc1c(-c2ccco2)[nH]c(=O)[nH]c1=O | > 50 µM (inactive)
18 | Cc1c(N=c2c(=O)c3ccccc3c2=O)c(=O)n(-c2ccccc2)n1C | 20.6 µM
19 | O=C(c1n[nH]c(=O)c2ccccc12)N1CCN(C2c3ccccc3-c3ccccc32)CC1 | > 50 µM (inactive)
20 | C=CCn1c(NC(=O)c2ccccc2Cl)c(C#N)c2nc3ccccc3nc21 | > 50 µM (inactive)
21 | Cc1ccc(S(=O)(=O)N2CCC(C(=O)N[C@@H](C)C(=O)Nc3ccc4c(c3)OCO4)CC2)cc1 | 11.9 µM
22 | COc1ccc(C2CC(=O)C3=C(C2)Nc2ncnn2C3c2ccccc2)cc1 (stereo not drawn) | > 50 µM (inactive)

Row | SMILES | IC50
23 | NCCCCCNc1cc(O)cc2cccnc12 | < 1.56 µM
24 | O=S(=O)(Nc1ccc(Cl)cc1O)c1ccccc1 | > 50 µM (inactive)
25 | CCOC(=O)c1cnc(SC2CCc3ccccc3C2=O)nc1N (stereo not drawn) | 15.1 µM
26 | COc1ccc(C2CC(c3ccccc3O)=NN2)cc1OC (stereo not drawn) | > 50 µM (inactive)
27 | Nc1ccc(CSc2ccc(Cl)cc2)c(O)c1 | > 50 µM (inactive)
28 | O=c1c(-c2ccc3c(c2)OCCO3)coc2c(CN3CCOCC3)c(O)ccc12 | > 50 µM (inactive)
29 | O=S(=O)(Nc1cc(O)cc2cccnc12)c1ccc(F)cc1 | 11.2 µM
30 | CCOc1ccc(S(=O)(=O)Nc2cc(Sc3ncn[nH]3)c3oc(=O)sc3c2)cc1 | inactive
31 | COc1ccc(S(=O)(=O)Nc2ccc(N)c(-c3ccccc3O)c2)cc1OC | > 50 µM (inactive)
32 | COc1ccc2c3c(cccc13)NN=C2C | 8.36 µM
33 | O=C1c2ccccc2C(Nc2ccc3c(c2)OCO3)N1Cc1ccc2c(c1)OCO2 (stereo not drawn) | > 50 µM (inactive)
34 | CCS(=O)(=O)NCc1ccc2[nH]c3c(c2c1)CCCC3 | 29.2 µM
35 | N#Cc1c(N2CCCC2)nc(N)c2c(N)nc(N3CCCC3)cc12 | 2.41 µM
36 | COc1cc(NCCCC(C)=O)c2nccc(Cl)c2c1 | > 50 µM (inactive)
37 | O=C(O)c1ccccc1C1=Nc2ccc(O)cc2Oc2cc(O)ccc21 | 13 µM
38 | Nc1ccc(NS(=O)(=O)c2ccccc2)c(O)c1 | > 50 µM (inactive)
39 | O=C(O)/C=C/c1ccc(O)c(O)c1 | > 50 µM (inactive)
40 | O=C(COc1ccccc1Cl)c1ccc(O)cc1O | > 50 µM (inactive)
41 | Nc1ccc(NS(=O)(=O)c2ccccc2N)cc1-c1ccccc1O | > 50 µM (inactive)
42 | COC(=O)c1cc(=O)[nH]c2ccc(C)cc12 | > 50 µM (inactive)
43 | Cc1ccccc1Nc1cc2ccccc2c(=O)[nH]1 | inactive
44 | O=S(=O)(c1cccc(-c2nnco2)c1)N1CCCC1 | > 50 µM (inactive)

Row | SMILES | IC50
45 | CC(C)c1cc(Nc2cccc(O)c2)cc(C(C)C)c1O | 27.2 µM
46 | CCn1cc(C(=O)NCc2ccccn2)c(=O)c2cc(S(=O)(=O)N3CCCCC3)ccc21 | 17.4 µM
47 | Nc1ccc(NS(=O)(=O)c2cccc([N+](=O)[O-])c2)cc1-c1ccccc1O | > 50 µM (inactive)
48 | CC(C)(C)OC(=O)Nc1cccc(NS(=O)(=O)c2cc(Cl)ccc2Cl)c1-c1ccccc1O | > 50 µM (inactive)
49 | CCc1cc(C(=O)Cn2cnc3ccccc32)c(O)cc1O | > 50 µM (inactive)
50 | Cc1ccc(S(=O)(=O)C(CCC(=O)N2CCOCC2)S(=O)(=O)c2ccc(C)cc2)cc1 | > 50 µM (inactive)
51 | N#Cc1cc(S(=O)(=O)Nc2ccc(F)c(-c3c(O)ccc4c3OCO4)c2)ccc1F | 25 µM
52 | O=S(=O)(NC1CCc2ccccc21)c1ccc(S(=O)(=O)N2CCCC2)cc1 (stereo not drawn) | > 50 µM (inactive)
53 | O=C(COc1ccc(-c2ccccc2)cc1)N1CCN(C(=O)c2cccnc2)CC1 | > 50 µM (inactive)
54 | COc1ccc(C(=O)c2c(C)n(C)c(=O)n(C)c2=O)cc1 | > 50 µM (inactive)
55 | Nc1cc(Br)cc2cccnc12 | > 50 µM (inactive)
56 | O=C1C(c2cnc3c(n2)CCC=C3)=C(O)c2ccccc21 | > 50 µM (inactive)
57 | CC(=O)Nc1cnc2ccccc2n1 | inactive
58 | CCCc1cc(-c2[nH]ncc2-c2ccc3c(c2)OCCCO3)c(O)cc1O | 12.2 µM
59 | O=C1C(=Cc2ccccn2)CNCC1=Cc1ccccn1 | > 50 µM (inactive)
60 | CC(C)OC(=O)CSc1nc2ccccc2s1 | > 50 µM (inactive)
61 | O=C1c2cccnc2C(=O)N1Cc1ccc2c(c1)OCO2 | > 50 µM (inactive)
62 | O=C(OC1CCc2ccccc2C1=O)c1ccccc1O (stereo not drawn) | > 50 µM (inactive)
63 | Oc1ccc2ccccc2c1C=NC12CN3CCN(CN(C3)C1)C2 | 6.41 µM
64 | Cn1c(=O)c2c(nc(NCc3ccc4c(c3)OCO4)n2C)n(C)c1=O | > 50 µM (inactive)
65 | Cc1noc(C(=O)Nc2ccc3c(c2)OCO3)c1Cl | 22.5 µM
66 | COc1cc(C2CC(c3ccccc3O)=NN2)ccc1O (stereo not drawn) | > 50 µM (inactive)

Row | SMILES | IC50
67 | N#Cc1cc(S(=O)(=O)Nc2cc(O)cc3cccnc23)ccc1F | inactive
68 | Cc1[nH]c2c(N)cccc2c1C | > 50 µM (inactive)
69 | CCOc1ccc2ccccc2c1-c1cc(NS(=O)(=O)c2ccc(C)cc2)ccc1N | > 50 µM (inactive)
70 | COc1ccc(S(=O)(=O)Nc2ccc(O)c(-c3ccccc3O)c2)cc1OC | > 50 µM (inactive)
71 | CC(OC(=O)c1cccs1)C(=O)NCc1cccs1 (stereo not drawn) | > 50 µM (inactive)
72 | Oc1cc(O)c2ncccc2c1 | > 50 µM (inactive)
73 | Cc1ccc(S(=O)(=O)Nc2ccc(N)c(-c3ccccc3O)c2)cc1 | > 50 µM (inactive)
74 | CCc1cc(C(=O)Cc2ccc(F)cc2)c(O)cc1O | > 50 µM (inactive)
75 | Cc1ccc(NC(=O)CC2SCCNC2=O)cc1Cl (stereo not drawn) | > 50 µM (inactive)
76 | O=[N+]([O-])c1ccc(S(=O)(=O)Nc2cc(OCc3ccccc3)cc3cccnc23)cc1F | > 50 µM (inactive)
77 | CCn1c(CSc2nnc3ccccn23)nc2cc(C(=O)O)ccc21 | 1.11 µM
78 | CCOC(=O)N1CCC(NC(=O)CSCc2nc(-c3sccc3C)oc2C)CC1 | > 50 µM (inactive)
79 | COc1ccc2c(c1-c1cc(NS(=O)(=O)c3cccc(N)c3)ccc1N)OCO2 | > 50 µM (inactive)
80 | O=C1c2ccccc2-c2onc3ccc(NCc4ccco4)c1c23 | < 1.56 µM
81 | N#CCSc1nnc2[nH]c(=O)cc(N)n12 | > 50 µM (inactive)
82 | O=C(c1cc(-c2ccncc2)nc2ccc(Br)cc12)N1CCN(c2ccccn2)CC1 | > 50 µM (inactive)
83 | CCC(C)NCCNc1cc(OC)cc2cccnc12 (stereo not drawn) | 3.12 µM
84 | O=C(Cn1cnc2ccccc2c1=O)NCCC(=O)Nc1ccc2c(c1)OCCO2 | > 50 µM (inactive)
85 | O=[N+]([O-])c1cc(S(=O)(=O)Nc2ccc(F)c(-c3c(O)ccc4c3OCO4)c2)ccc1Cl | 25 µM
86 | CCCCn1c(NC(=O)c2ccco2)c(C(=O)OCC)c2nc3ccccc3nc21 | > 50 µM (inactive)
87 | COc1ccc(C2=NO[C@@H]3C(=O)N(c4c(C)cccc4C)C(=O)[C@H]23)cc1OC | 25.4 µM
88 | O=C(O)CCC(=O)NCc1ccc2[nH]c3c(c2c1)CCCC3 | > 50 µM (inactive)

Row | SMILES | IC50
89 | COc1cc(NC(=O)CCCCCCN)c2ncccc2c1 | > 50 µM (inactive)
90 | COc1ccccc1-c1nnc2n1N=C(c1ccc(O)c(O)c1)CS2 | 10.7 µM
91 | COc1cc(NCCCC(C)=O)c2nccc(OCc3ccccc3)c2c1 | > 50 µM (inactive)
92 | COc1ccc2c(c1-c1cc(NS(=O)(=O)c3ccc(C)cc3)ccc1N)OCO2 | > 50 µM (inactive)
93 | O=C1NCCCC2c3cc(O)c4ccccc4c3OC12N1CCCCC1 (stereo not drawn) | 5.79 µM
94 | COc1cc(NCCCC(C)=NO)c2nccc(OCc3ccccc3)c2c1 | > 50 µM (inactive)
95 | CCOC(=O)NC1(Nc2ccc(Cl)cn2)Oc2ccccc2O1 | > 50 µM (inactive)
96 | Nc1cc(N)c2cccnc2c1O | 3.13 µM
97 | CC(=O)CCCNc1c(OCc2ccccc2)ccc2c(C)cc(=O)oc12 | > 50 µM (inactive)
98 | CC(C)NCCCCCNc1cc(O)cc2cccnc12 | 6.25 µM
99 | CCc1ccc(CNc2ccc(N3CCN(C(C)=O)CC3)cc2)cc1 | inactive
100 | CCn1nnc(NC(=O)COc2cc(C)ccc2C(C)C)n1 | > 50 µM (inactive)
101 | CCN(CC)CCCCCNc1cc(O)cc2cccnc12 | 6.25 µM
102 | O=C(NCCN1CCOCC1)NC1(C(F)(F)F)Oc2ccc(Cl)cc2O1 (stereo not drawn) | > 50 µM (inactive)
103 | CCc1nc(SCC(=O)c2ccc(O)cc2O)n[nH]1 | > 50 µM (inactive)
104 | Cc1ccc2[nH]c3c(c2c1)CN(C(=O)CN1CCN(c2ccccc2)CC1)CC3 | > 50 µM (inactive)
105 | COc1cc(NS(=O)(=O)c2ccc(F)c(C#N)c2)c2ncccc2c1 | > 50 µM (inactive)
106 | Cc1cccc(NC(=O)Cn2nnc(-c3cccs3)n2)c1C | > 50 µM (inactive)
107 | CC(=O)c1cccc(NC(=O)CSc2nnc(-c3ccc(S(=O)(=O)N4CCCC4)cc3)o2)c1 | > 50 µM (inactive)
108 | O=[N+]([O-])c1ccc(O)c2cccnc12 | > 50 µM (inactive)
